# Results taken from publication PMC10009752 (Journal of Medicinal Chemistry, 2023).
# Tests used:
# [1] = test system: 5′-biotinylated dsDNA (DNA, duplex) TGTAATCGTAGGTTGGTCCCATCACCCACC/GGTGGGTGATGGGACCAACCTACGATTACA; assay: resonant mirror optical biosensor kinetics (IAsys plus); details: 138 mM NaCl, 2.7 mM KCl; PBS (10 mM Na2HPO4), pH 7.4, 37 °C; monoexponential fit
# CRL-1831 cells = assay: Cytoplasmic cholesterol levels (AmplexRed), CRL-1831; assay type: cell-based, human; details: 10 μM, 4 h
# Procedure: After 4 h exposure to 10 μM of both compounds at 37 °C, cells were trypsinized, washed with PBS, and pelleted by centrifugation at 8000g for 5 min. Cytoplasmic cholesterol levels were quantitated using the AmplexRed Cholesterol Assay kit.[48] Briefly, the pellets were resuspended in the reaction buffer and lysed with a 29G syringe. The working solution, containing the Amplex Red reagent (300 mM), horseradish peroxidase (2 U/mL), cholesterol oxidase (2 U/mL), and cholesterol esterase (0.2 U/mL) in 1× reaction buffer was freshly prepared before each experiment. […] Working solution (50 μL), 40 μL of 1× reaction buffer, and 40 μL of cell lysates were placed in a 96-well plate and incubated at 37 °C for 30 min. After 4 h, fluorescence measurements were recorded (λexc = 540 nm, λem = 590 nm) using a SpectraMax Gemini XPS microplate reader (Molecular Device, Milan – Italy).
SMILES,KD [1] [µM],"cytoplasmic cholesterol concentration, CRL-1831 (CRL-1831 cells)"
COc1ccc(C(=O)c2c(C)nn(-c3ccccc3)c2[O-])cc1.COc1ccc(C(=O)c2c(C)nn(-c3ccccc3)c2[O-])cc1.COc1ccc(C(=O)c2c(C)nn(-c3ccccc3)c2[O-])cc1.[Ga+3],3.34 ± 1.67,
Cc1nn(-c2ccccc2)c([O-])c1C(=O)c1ccc(C(C)(C)C)cc1.Cc1nn(-c2ccccc2)c([O-])c1C(=O)c1ccc(C(C)(C)C)cc1.Cc1nn(-c2ccccc2)c([O-])c1C(=O)c1ccc(C(C)(C)C)cc1.[Ga+3],3.27 ± 0.78,
Cc1nn(-c2ccccc2)c([O-])c1C(=O)c1ccccc1.Cc1nn(-c2ccccc2)c([O-])c1C(=O)c1ccccc1.Cc1nn(-c2ccccc2)c([O-])c1C(=O)c1ccccc1.[Ga+3],0.76 ± 0.54,
Cc1nn(-c2ccccc2)c([O-])c1C(=O)c1ccco1.Cc1nn(-c2ccccc2)c([O-])c1C(=O)c1ccco1.Cc1nn(-c2ccccc2)c([O-])c1C(=O)c1ccco1.[Ga+3],3.63 ± 1.88,
Cc1nn(-c2ccccc2)c([O-])c1C(=O)c1cccs1.Cc1nn(-c2ccccc2)c([O-])c1C(=O)c1cccs1.Cc1nn(-c2ccccc2)c([O-])c1C(=O)c1cccs1.[Ga+3],2.24 ± 1.36,
"CCC(C)(C)C(=O)O[C@H]1C[C@@H](C)C=C2C=C[C@H](C)[C@H](CC[C@@H]3C[C@@H](O)CC(=O)O3)[C@H]21 [Simvastatin, reference compound]",,significantly decreased
